Assay results taken from publication PMC3492160, “Identification of white campion (Silene latifolia) guaiacol O-methyltransferase involved in the biosynthesis of veratrole, a key volatile for pollinator attraction” (BMC Plant Biology, 2012).

Tests used:
SlGOMT2 = tested on: T1, SlGOMT2; experiment: radiometric methylation assay with […]-SAM, ethyl acetate extraction, double reciprocal plot; format: biochemical, Silene latifolia; conditions: SAM 200 μM constant; 5 mM MgCl2; Tris-HCl pH 7.5; room temperature; apparent Km
T1 construct: no tag removal described

SlGOMT1 = tested on: T2, SlGOMT1; experiment: as above; format: biochemical, Silene latifolia; conditions: SAM 200 μM constant; 5 mM MgCl2; Tris-HCl pH 7.5; room temperature; apparent Km
T2 construct: no tag removal described

COc1ccccc1O [guaiacol]
Km (SlGOMT2): 501 ± 198 µM | Km (SlGOMT1): 9.79 ± 1.51 µM
